Source: patent US5641500A, “Use of purinergic receptor agonists as antineoplastic agents” (The United States of America as represented by the …, priority 1995, dated 1997)

Columns and labels:
[1] = test system: DU145 prostate carcinoma purinergic receptor; test: ATP/purine-stimulated Ca2+ response (quin2 fluorescence) in DU145; format: cell-based, human; details: for relative agonist potency/activity in inducing a Ca2+ transient: DU145, FIG. 6
Experimental: (§5) The human prostate carcinoma cell lines PC3, DU145 (American Type Culture Collection) and PC-3M (a gift of Dr. G. Weiss, Surgery Branch, NCI) were maintained in Ham's F12K (PC3), Eagle's Modified Essential Medium (DU145), or RPMI 1640 (PC3M), supplemented with 7% (PC3) or 10% (DU145 and PC3M) fetal bovine serum, 100 units/ml penicillin, 100 mg/ml streptomycin, and 300 mg/ml glutamine. The cells were grown in a mixture of 5% CO2, 95% air at 37° C., and propagated by typsinization and dilution into fresh medium. Cells were typically used for calcium determination two days after dilution into fresh medium.
(§6) [Ca^2+ ]i was determined by the quin2 technique of Tsien et al. (J. Cell Biol. 94:325-334, 1982) with some modifications. Briefly, cells from confluent cultures were harvested by treatment with trypsin-EDTA. Cells were washed with calcium medium (1 mM CaCl2, 1 mM KCl, 1 mM MgCl2, 140 mM NaCl, 20 mM HEPES, 5 mM dextrose, pH 7.4), and loaded with 20 mM quin2/AM (Molecular Probes, Eugene, Oreg.) in calcium medium at 37° C. for 30 minutes, then diluted 5-fold with the same medium and incubated at 37° C. for 60 minutes. After loading, cells were washed and resuspended in the calcium media at 1.5-2.0×10^6 cells/ml and kept on ice until use. Cell viability was determined by trypan blue exclusion and was usually >95%. For measurement of fluorescence, 2 ml of cell suspension was transferred to a cuvette maintained at 37° C. Fluorescence was measured in a Perkin-Elmer 650-10S fluorescence spectrophotometer, with an excitation wavelength of 336 nm, slit 5 nm, and an emission wavelength of 493 nm, slit 5 nm. [Ca^2+ ]i was estimated after calibration with Triton X-100 and EGTA, assuming a dissociation constant of the Ca^2+ -quin2 complex of 115 nM.

[2] = test system: PC-3 prostate carcinoma purinergic receptor; test: ATP/purine-stimulated Ca2+ response (quin2 fluorescence) in PC-3; format: cell-based, human; details: for relative agonist potency/activity in inducing a Ca2+ transient: PC-3, FIG. 7
Experimental: as §5, §6

[3] = test system: purinergic receptor on PC-3M prostate carcinoma cells; test: Purine-stimulated Ca2+ response (quin2 fluorescence) in PC-3M; format: cell-based, human; details: FIG. 8
Experimental: as §5, §6

[4] = test system: PC-3 prostate carcinoma cells; test: Cell growth (hemacytometer viable cell counts) and 3H-thymidine incorporation in PC-3; format: cell-based, human; details: for inhibition of cell growth: PC-3, 5 days, versus untreated control cells, FIG. 12; for 3H-thymidine incorporation cpm / 3H-thymidine incorporation cpm/cell / cell # (× 10-4): PC-3, 7 days
Experimental: (§1) The human prostate carcinoma cell lines PC3, DU145 (American Type Culture Collection) and PC-3M (a gift of Dr. G. Weiss, Surgery Branch, NCI) were maintained in Ham's F12K (PC3), Eagle's Modified Essential Medium (DU145), or RPMI 1640 (PC3M), supplemented with 7% (PC3) or 10% (DU145 and PC3M) fetal bovine serum, 100 units/ml penicillin, […], and […]. The cells were grown in a mixture of 5% CO2, 95% air at 37° C., and propagated by typsinization and dilution into fresh medium. Cells were typically used for calcium determination two days after dilution into fresh medium.
(§2) Cell growth was studied by hemacytometer counts of viable cells after incubation of cells with purinergic agonists in vitro. Viability was determined by trypan blue exclusion. In addition, growth studies were performed by ^3 H-thymidine incorporation. […] The induction of DNA strand breaks in the setting of cell growth inhibition is characteristic of programmed cell death or apoptosis.
(§3) Since purinergic receptor agonists induce massive mobilization of internal Ca^2+ stores and prolong this response through the opening of plasma membrane Ca^2+ channels, the effect of purinergic receptor stimulation on the growth of androgen-independent cells was examined. The cell lines DU145, PC-3, and PC-3M were incubated in the presence of ATP or the nonhydrolysable ATP analog adenylylimidodiphosphate (AMP-PNP), and cell growth was determined by hemacytometer counts of viable cells, with viability determined by trypan blue exclusion.
(§4) To further document the purinergic agonist-induced growth inhibition, thymidine incorporation studies were performed in conjunction with hemacytometer cell counts, and the thymidine incorporation per cell of ATP and AMP-PNP treated PC-3 and PC-3M cells was determined. These studies, shown in Table 2, confirmed that purinergic agonists inhibit the growth of androgen-independent prostate carcinoma cells. […] It is of interest that normal prostate cells die in response to androgen withdrawal in a process called apoptosis, and this cell death resembles the cell death shown after treatment with purinergic agonists in two respects. Firstly, the death of normal prostate cells after androgen withdrawal is dependent on a rise in intracellular Ca^2+. Secondly, the death of normal prostate cells after androgen withdrawal is mediated by an increase in the number of DNA strand breaks. Thus, this technique should be therapeutically useful for circumventing the absence of androgen receptors on advanced prostate carcinoma cells. The results presented here represent the discovery of a surface receptor specifically expressed on advanced prostatic adenocarcinoma which, when activated, induces a mode of cell death that apparently utilizes that same intracellular pathway as the death that normal prostate cells undergo in response to the withdrawal of androgen.

[5] = test system: PC-3M prostate carcinoma cells; test: Cell growth (hemacytometer viable cell counts) and 3H-thymidine incorporation in PC-3M; format: cell-based, human; details: 5 days
Experimental: as §1, §2, §3, §4

[6] = test system: DU145 cells; test: Cell growth (hemacytometer viable cell counts) in DU145; format: cell-based, human; details: DU145, 5 days, 100 μM, versus untreated controls, FIG. 11
Experimental: as §1
Cell growth was studied by hemacytometer counts of viable cells after incubation of cells with purinergic agonists in vitro. Viability was determined by trypan blue exclusion. In addition, growth studies were performed by ^3 H-thymidine incorporation. […]
as §3

[7] = test system: PC-3 prostate carcinoma cells; test: Nude mouse tumorigenesis of PC-3 cells pretreated in vitro; format: in vivo, athymic mice; details: cells pretreated in vitro 100 uM 3 times over 7 days, 1.5×10^6 cells/mouse s.c., FIG. 13
Experimental: PC-3 prostate carcinoma cells were treated in vitro with the purinergic agonists ATP or AMP-PNP, 100 uM 3 times over 7 days, and their growth in athymic mice was compared to that in untreated control cells. Cells were injected subcutaneously at an inoculum of 1.5×10^6 cells/mouse in 0.2 ml phosphate buffered saline, and the presence of palpable tumors was determined on day 22.
The cells were treated in vitro for 7 days, and then an equal number of untreated control cells, ATP treated, or AMP-PNP treated cells were inoculated subcutaneously into nude (athymic) mice.

[8] = test system: phospholipase C; test: ATP-stimulated inositol phosphate production (HPLC of 3H-inositol phosphates) in PC-3; format: cell-based, human
Experimental: Cells were incubated with ^3 H-inositol (6 μCi/ml) in inositol-free RPMI 1640 medium (NIH Media Unit) without serum for 2 to 3 days at 37° C. under an atmosphere of 5% CO2, 95% air. Cells were detached by trypsinization, washed twice in phosphate buffered saline pH 7.4, resuspended in PBS with 10 mM LiCl, and maintained for 15 minutes at 37° C. After that, cells were washed twice with PBS plus 10 mM LiCl and resuspended in calcium medium plus 10 mM LiCl. The cell suspension was aliquoted into Eppendorf tubes, pre-warmed at 37° C., and treated with reagents for different times as indicated. Reactions were terminated by adding 100% trichloroacetic acid (TCA) to a final concentration of 10%. After centrifugation, the supernatants were removed, extracted twice with water-saturated ether to remove TCA, and stored at 4° C. until quantitative analysis of inositol phosphates by high pressure liquid chromatography.
Samples prepared as described above were applied to a Whatman Partisil 5 SAX column. Inositol phosphates were separated using an ammonium phosphate gradient (0.01M to 1.4M. pH 3.8, 1 ml/min flow rate) as described previously (Biochem. J. 255: 403-410, 1988). Radioactivity was measured by use of a Raytest radiodetector with a 2 ml flow cell and a ratio of 4:1 (v:v) of Monoflow 4 high salt scintillant (National Diagnostics); eluate at an efficiency of 17%. Values (counts/min) for each inositol phosphate were expressed as a percentage of ^3 H-phosphoinositides in the sample, permitting comparison among experiments.

[9] = test system: plasma membrane Ca^2+ channels; test: Effect of organic Ca2+ channel blockers on the ATP-stimulated Ca2+ transient in PC-3; format: cell-based, human; details: PC-3, FIG. 9

In the case of Nc1ncnc2c1ncn2[C@@H]1O[C@H](COP(=O)(O)OP(=O)(O)O)[C@@H](O)[C@H]1O [ADP, adenosine diphosphate], the “relative agonist potency/activity in inducing a Ca2+ transient” value (“relative agonist potency/activity” for short) [1] is reported as “ATP>ADP>AMP>adenosine”, the “relative agonist potency/activity” value [2] is reported as “ATP>ADP>AMP>adenosine” and the “relative agonist potency/activity” value [3] is reported as “ATP>ADP>AMP>adenosine”.

In the case of Nc1ncnc2c1ncn2[C@@H]1O[C@H](COP(=O)(O)O)[C@@H](O)[C@H]1O [AMP, adenosine monophosphate], the “relative agonist potency/activity” value [1] is reported as “ATP>ADP>AMP>adenosine”, the “relative agonist potency/activity” value [2] is reported as “ATP>ADP>AMP>adenosine” and the “relative agonist potency/activity” value [3] is reported as “ATP>ADP>AMP>adenosine”.

For Nc1ncnc2c1ncn2[C@@H]1O[C@H](COP(=O)(O)OP(=O)(O)NP(=O)(O)O)[C@@H](O)[C@H]1O [AMP-PNP, 5'adenylylimidodiphosphate], the “inhibition of cell growth” value ([4]; 100 μM) was “inhibition of growth”, the 3H-thymidine incorporation cpm ([4]; 100 μM) was 307 cpm and the 3H-thymidine incorporation cpm/cell ([4]; 100 μM) was 0.06 cpm/cell. The “cell # (× 10-4)” value ([4]; 100 μM) was 0.5 × 10-4, the 3H-thymidine incorporation cpm ([5]; 100 μM) was 2790 cpm and the 3H-thymidine incorporation cpm/cell ([5]; 100 μM) was 0.14 cpm/cell. For the same compound, the “cell # (× 10-4)” value ([5]; 100 μM) was 2.0 × 10-4, the “inhibition of cell growth” value [6] was “inhibition of growth” and the “inhibition of tumorigenesis (palpable tumor)” value [7] was “inhibition of PC-3 prostate carcinoma tumorigenesis”.

For Nc1ncnc2c1ncn2[C@@H]1O[C@H](COP(=O)(O)OP(=O)(O)OP(=O)(O)O)[C@@H](O)[C@H]1O [ATP, adenosine triphosphate], the “mean percent stimulation of Ca2+ response” value ([1]; DU145, 100 μM ATP, 13 experiments) was 510.7%, the “relative agonist potency/activity” value [1] was “ATP>ADP>AMP>adenosine” and the “mean percent stimulation of Ca2+ response” value ([2]; PC-3, 100 μM ATP, 16 experiments) was 443.3%. The “Ca2+ mobilizing activity compared with other peptides and neurotransmitters” value ([2]; PC-3, FIG. 1) was “largest Ca^2+ response of the agonists tested”, the “relative agonist potency/activity” value [2] was “ATP>ADP>AMP>adenosine” and the “relative agonist potency/activity” value [3] was “ATP>ADP>AMP>adenosine”. For the same compound, the “I(1,4,5)P3 % of total IP” value ([8]; PC-3, 8 sec) was 0.64 % of total IP, the “I(1,4,5)P3 cpm” value ([8]; PC-3, 8 sec) was 1103 cpm and the “I(1,4,5)P3 % of total IP” value ([8]; PC-3, 15 sec) was 0.57 % of total IP. For the same compound, the “I(1,4,5)P3 cpm” value ([8]; PC-3, 15 sec) was 971 cpm, the “I(1,4,5)P3 % of total IP” value ([8]; PC-3, 30 sec) was 0.78 % of total IP and the “I(1,4,5)P3 cpm” value ([8]; PC-3, 30 sec) was 1361 cpm. For the same compound, the “inhibition of cell growth” value ([4]; 100 μM) was “inhibition of growth”, the 3H-thymidine incorporation cpm ([4]; 100 μM) was 2729 cpm and the 3H-thymidine incorporation cpm/cell ([4]; 100 μM) was 0.04 cpm/cell. The “cell # (× 10-4)” value ([4]; 100 μM) was 7.5 × 10-4, the 3H-thymidine incorporation cpm ([5]; 100 μM) was 3307 cpm and the 3H-thymidine incorporation cpm/cell ([5]; 100 μM) was 0.11 cpm/cell. The “cell # (× 10-4)” value ([5]; 100 μM) was 3.0 × 10-4, the “inhibition of cell growth” value [6] was “inhibition of growth” and the “inhibition of tumorigenesis (palpable tumor)” value [7] was “inhibition of PC-3 prostate carcinoma tumorigenesis”.

In the case of CCCC(=O)Nc1ncnc2c1ncn2[C@@H]1O[C@@H]2COP(=O)(O)O[C@H]2[C@H]1OC(=O)CCC [DbcAMP, reference compound], the 3H-thymidine incorporation cpm ([4]; DbcAMP concentration not given) is reported as 182 cpm, the 3H-thymidine incorporation cpm/cell ([4]; DbcAMP concentration not given) is reported as 0.01 cpm/cell and the “cell # (× 10-4)” value ([4]; DbcAMP concentration not given) is reported as 1.5 × 10-4.

For C[C@H](CCC(=O)O)C[C@H](C)C[C@H](C)C(=O)/C=C(\O)[C@H](C)C[C@H](C)C/C=C/[C@@H](C)[C@@H](O)[C@@H](C)[C@@H](O)C[C@@H]1CC[C@@](C)([C@H]2CC[C@@](C)([C@@H](C)O)O2)O1 [Ionomycin, ionomycin, reference compound], the 3H-thymidine incorporation cpm ([5]; 1 μM) was 3920 cpm, the 3H-thymidine incorporation cpm/cell ([5]; 1 μM) was 0.39 cpm/cell and the “cell # (× 10-4)” value ([5]; 1 μM) was 1.0 × 10-4.

Nc1ncnc2c1ncn2[C@@H]1O[C@H](CO)[C@@H](O)[C@H]1O [adenosine] was tested, and the “relative agonist potency/activity” value [1] was “ATP>ADP>AMP>adenosine”, the “relative agonist potency/activity” value [2] was “ATP>ADP>AMP>adenosine” and the “relative agonist potency/activity” value [3] was “ATP>ADP>AMP>adenosine”.

COc1ccc([C@@H]2Sc3ccccc3N(CCN(C)C)C(=O)[C@@H]2OC(C)=O)cc1 [diltiazem] was tested, and the “inhibition of influx of extracellular Ca2+ caused by ATP stimulation” value (from here on “inhibition of influx … by ATP stimulation”) [9] was “inhibitable”.

COC(=O)C1=C(C)NC(C)=C(C(=O)OCCN(C)Cc2ccccc2)C1c1cccc([N+](=O)[O-])c1 (stereo not shown) [nicardipine] was tested, and the “inhibition of influx … by ATP stimulation” value [9] was “inhibitable”.

In the case of COC(=O)C1=C(C)NC(C)=C(C(=O)OC)C1c1ccccc1[N+](=O)[O-] [nifedipine], the “inhibition of influx … by ATP stimulation” value [9] is reported as “inhibitable”.

COc1ccc(CCN(C)CCCC(C#N)(c2ccc(OC)c(OC)c2)C(C)C)cc1OC (stereo not shown) [verapamil] was tested, and the “inhibition of influx … by ATP stimulation” value [9] was “inhibitable”.
